The source made the active and inactive calls. No cut-off for these calls is given here.
How the values were obtained:
[1] = system: Infectious hematopoietic necrosis virus; experiment: Inhibition of Infectious hematopoietic necrosis virus glycoprotein G assessed as antiviral activity at 25 uM measured by RT-qPCR method relative to control
[2] = system: Infectious hematopoietic necrosis virus; experiment: Antiviral activity against Infectious hematopoietic necrosis virus infected in Fathead minnow EPC cells assessed as inhibition of G protein expression measured after 72 hrs by RT-qPCR method; type: functional, organism-based
[3] = system: Infectious hematopoietic necrosis virus; experiment: Antiviral activity against Infectious hematopoietic necrosis virus infected in Fathead minnow EPC cells assessed as decrease in virus-induced apoptosis by measuring appearance of normal sized nuclei in cells at 100 uM measured after 72 hrs by Flowcytometry assay; type: functional, organism-based
[4] = system: Infectious hematopoietic necrosis virus; experiment: Antiviral activity against Infectious hematopoietic necrosis virus infected in Fathead minnow EPC cells assessed as inhibition of phospho protein gene expression at 0.1 to 100 uM measured after 72 hrs by RT-qPCR method relative to control; type: functional; design: scale not given: the % may be the effect or the level left; details: dose 0.1-100 µM
[5] = system: Infectious hematopoietic necrosis virus; experiment: Antiviral activity against Infectious hematopoietic necrosis virus infected in Fathead minnow EPC cells assessed as decrease in virus-induced apoptosis by measuring necrotic cells measured after 72 hrs by Annexin V/PI staining based flowcytometry method (reference value: 0.29%); type: functional; design: scale not given: the % may be the effect or the level left
[6] = system: Infectious hematopoietic necrosis virus; experiment: Antiviral activity against Infectious hematopoietic necrosis virus infected in Fathead minnow EPC cells assessed as decrease in virus-induced apoptosis by measuring caspase-3 activity at 25 uM measured after 72 hrs by Caspase activity assay relative to control; type: functional; design: scale not given: the % may be the effect or the level left
[7] = system: Infectious hematopoietic necrosis virus; experiment: Antiviral activity against Infectious hematopoietic necrosis virus infected in Fathead minnow EPC cells assessed as reduction of virus titre values at 0.25 to 25 uM measured after 72 to 96 hrs; type: functional, organism-based; details: dose 0.25-25 µM, time 72-96 hrs
[8] = system: Infectious hematopoietic necrosis virus; experiment: Antiviral activity against Infectious hematopoietic necrosis virus infected in Rainbow trout fish assessed as decrease of viral proliferation in fish spleen ip measured after 4 days; type: functional, organism-based; details: time 4.0 day
[9] = system: Infectious hematopoietic necrosis virus; experiment: Antiviral activity against Infectious hematopoietic necrosis virus infected in Fathead minnow EPC cells assessed as inhibition of matrix protein gene expression at 0.1 to 100 uM measured after 72 hrs by RT-qPCR method relative to control; type: functional; design: scale not given: the % may be the effect or the level left; details: dose 0.1-100 µM
[10] = system: Infectious hematopoietic necrosis virus; experiment: Antiviral activity against Infectious hematopoietic necrosis virus infected in Rainbow trout fish assessed as decrease of viral proliferation in fish brain ip measured after 4 days; type: functional, organism-based; details: time 4.0 day
[11] = Induction of apoptosis in Fathead minnow EPC cells assessed as late apoptotic cells measured after 72 hrs by Annexin V/PI staining based flowcytometry method (reference value: 1.95%); type: functional, Pimephales promelas
[12] = Cytotoxicity against Fathead minnow EPC cells at 25 uM; type: cell-based; details: pimephales promelas
[13] = Cytotoxicity against Grass carp GCO cells at 25 uM; type: cell-based; details: ctenopharyngodon idellus
[14] = system: Infectious hematopoietic necrosis virus; experiment: Antiviral activity against Infectious hematopoietic necrosis virus infected in Fathead minnow EPC cells assessed as inhibition of polymerase protein gene expression at 0.1 to 100 uM measured after 72 hrs by RT-qPCR method relative to control; type: functional; design: scale not given: the % may be the effect or the level left; details: dose 0.1-100 µM
[15] = system: Infectious hematopoietic necrosis virus; experiment: Antiviral activity against Infectious hematopoietic necrosis virus infected in Fathead minnow EPC cells assessed as decrease in virus-induced apoptosis by measuring caspase-8 activity at 25 uM measured after 72 hrs by Caspase activity assay relative to control; type: functional; design: scale not given: the % may be the effect or the level left
[16] = system: Infectious hematopoietic necrosis virus; experiment: Antiviral activity against Infectious hematopoietic necrosis virus infected in Fathead minnow EPC cells assessed as decrease in virus-induced apoptosis by measuring caspase-9 activity at 25 uM measured after 72 hrs by Caspase activity assay relative to control; type: functional; design: scale not given: the % may be the effect or the level left
[17] = system: Infectious hematopoietic necrosis virus; experiment: Antiviral activity against Infectious hematopoietic necrosis virus infected in Rainbow trout fish assessed as decrease of mortality rate ip measured after 4 days; type: functional, organism-based; details: time 4.0 day
Sprivivirus cyprinus [18] = experiment: Antiviral activity against spring viremia of carp virus infected in Fathead minnow EPC cells assessed as reduction of viral titre value measured after 48 to 96 hrs; type: functional, organism-based; details: time 48-96 hrs
[19] = Induction of apoptosis in Fathead minnow EPC cells assessed as necrotic cells measured after 72 hrs by Annexin V/PI staining based flowcytometry method (reference value: 0.29%); type: functional, Pimephales promelas
Sprivivirus cyprinus [20] = experiment: Antiviral activity against spring viremia of carp virus infected in Fat head minnow EPC cells assessed as inhibition of N protein gene expression by RT-qPCR method relative to control; type: functional, organism-based
[21] = system: Infectious hematopoietic necrosis virus; experiment: Antiviral activity against Infectious hematopoietic necrosis virus infected in Fathead minnow EPC cells assessed as decrease in virus-induced apoptosis by measuring changes in cell morphology at 10 uM measured by ultrastructural analysis; type: functional, organism-based
[22] = system: Infectious hematopoietic necrosis virus; experiment: Antiviral activity against Infectious hematopoietic necrosis virus infected in Rainbow trout fish assessed as decrease of viral proliferation in fish kidney ip measured after 4 days; type: functional, organism-based; details: time 4.0 day
Sprivivirus cyprinus [23] = experiment: Antiviral activity against spring viremia of carp virus infected in Fat head minnow EPC cells assessed as inhibition of N protein gene expression at 0.1 to 100 uM by RT-qPCR method relative to control; type: functional; design: scale not given: the % may be the effect or the level left; details: dose 0.1-100 µM
[24] = system: Infectious hematopoietic necrosis virus; experiment: Antiviral activity against Infectious hematopoietic necrosis virus infected in Fathead minnow EPC cells at 25 uM preincubated for 1 to 4 hrs followed by compound washout and infected to EPC cells and measured after 72 hrs by RT-qPCR assay; type: functional, organism-based; details: time 1-4 hrs
[25] = system: Infectious hematopoietic necrosis virus; experiment: Antiviral activity against Infectious hematopoietic necrosis virus infected in Fathead minnow EPC cells assessed as decrease in virus-induced apoptosis by measuring early apoptotic cells measured after 72 hrs by Annexin V/PI staining based flowcytometry method (reference value: 3.8%); type: functional; design: scale not given: the % may be the effect or the level left
[26] = system: Infectious hematopoietic necrosis virus; experiment: Antiviral activity against Infectious hematopoietic necrosis virus infected in Fathead minnow EPC cells assessed as decrease in virus-induced apoptosis by measuring late apoptotic cells measured after 72 hrs by Annexin V/PI staining based flowcytometry method (reference value: 1.95%); type: functional; design: scale not given: the % may be the effect or the level left
[27] = system: Micropterus salmoides rhabdovirus; experiment: Antiviral activity against micropterus salmoides rhabdo-virus infected in Fat head minnow EPC cells assessed as inhibition of N protein gene expression by RT-qPCR method relative to control; type: functional, organism-based
[28] = system: Micropterus salmoides rhabdovirus; experiment: Antiviral activity against micropterus salmoides rhabd-ovirus infected in Fat head minnow EPC cells assessed as inhibition of N protein gene expression at 0.1 to 100 uM by RT-qPCR method relative to control; type: functional; design: scale not given: the % may be the effect or the level left; details: dose 0.1-100 µM
[29] = system: Infectious hematopoietic necrosis virus; experiment: Antiviral activity against Infectious hematopoietic necrosis virus infected in Fathead minnow EPC cells assessed as inhibition of nucleoprotein gene expression at 0.1 to 100 uM measured after 72 hrs by RT-qPCR method relative to control; type: functional; design: scale not given: the % may be the effect or the level left; details: dose 0.1-100 µM
[30] = Induction of apoptosis in Fathead minnow EPC cells assessed as viable cells measured after 72 hrs by Annexin V/PI staining based flowcytometry method (reference value: 94%); type: functional, Pimephales promelas
[31] = system: Infectious hematopoietic necrosis virus; experiment: Antiviral activity against Infectious hematopoietic necrosis virus infected in Fathead minnow EPC cells assessed as suppression of virus-induced cytopathic effect at 100 uM; type: functional, organism-based
[32] = Induction of apoptosis in Fathead minnow EPC cells assessed as early apoptotic cells measured after 72 hrs by Annexin V/PI staining based flowcytometry method (reference value: 3.8%); type: functional, Pimephales promelas
[33] = system: Micropterus salmoides rhabdovirus; experiment: Antiviral activity against micropterus salmoides rhabdo-virus infected in Grass carp GCO cells assessed as reduction of viral titre value measured after 48 to 96 hrs; type: functional, organism-based; details: time 48-96 hrs
[34] = system: Infectious hematopoietic necrosis virus; experiment: Antiviral activity against Infectious hematopoietic necrosis virus infected in Fathead minnow EPC cells assessed as decrease in virus-induced apoptosis by measuring viable cells measured after 72 hrs by Annexin V/PI staining based flowcytometry method (reference value: 94%); type: functional
[35] = system: Infectious hematopoietic necrosis virus; experiment: Antiviral activity against Infectious hematopoietic necrosis virus infected in Fathead minnow EPC cells assessed as inhibition of virus-cell recognition at 25 uM measured after 30 mins by RT-qPCR method; type: functional, organism-based
[36] = system: Infectious hematopoietic necrosis virus; experiment: Antiviral activity against Infectious hematopoietic necrosis virus infected in Fathead minnow EPC cells assessed as decrease in virus-induced apoptosis by measuring formation of few apoptotic bodies in cells at 100 uM measured after 72 hrs by Flowcytometry assay; type: functional, organism-based

O=c1ccc2ccc(OCCCCn3cnc4ccccc43)cc2o1
inhibition [1]: 35.1%

CCCCOc1ccc2c(C)cc(=O)oc2c1
inhibition [1]: -4.37%

CCCOc1ccc2c(C)cc(=O)oc2c1
inhibition [1]: -1.75%

COc1cc(=O)oc2ccccc12
inhibition [1]: 19.5%

Cc1cc(=O)oc2cc(OCCCCCCBr)ccc12
inhibition [1]: -2.34%

O=c1ccc2ccc(OCCCCCCCCn3cnc4ccccc43)cc2o1
inhibition [1]: 46.1%

COc1ccc2c(C)cc(=O)oc2c1
inhibition [1]: 2.13%

CCCCOc1cc(=O)oc2ccccc12
inhibition [1]: 14.5%

C=C(C)COc1ccc2c(C)cc(=O)oc2c1
inhibition [1]: 9.37%

O=c1ccc2ccc(OCCn3cnc4ccccc43)cc2o1
inhibition [1]: 5.58%

O=c1ccc2ccc(OCCCCCCSc3cccc(O)c3)cc2o1
inhibition [1]: 13.8%

NC(=O)c1ncn([C@@H]2O[C@H](CO)[C@@H](O)[C@H]2O)n1
inhibition [1]: 99.1%

CCCOc1cc(=O)oc2ccccc12
inhibition [1]: 9.48%

O=c1ccc2ccc(OCCCCCCn3cncn3)cc2o1
inhibition [1]: 39.2%

CCCOc1ccc2ccc(=O)oc2c1
inhibition [1]: 5.73%

C=CCOc1cc(=O)oc2ccccc12
inhibition [1]: 2.46%

COc1ccc2ccc(=O)oc2c1
inhibition [1]: 10.8%

Cc1cc(=O)oc2cc(OCCCCCCn3ccnc3)ccc12
inhibition [1]: 82.1% | IC50 [2]: 7.63 µM

CCCCOc1ccc2ccc(=O)oc2c1
inhibition [1]: 22%

Nc1ccccc1SCCCCCCOc1ccc2ccc(=O)oc2c1
inhibition [1]: 49.3%

C=C(C)COc1cc(=O)oc2ccccc12
inhibition [1]: 9.47%

O=c1ccc2ccc(OCCCn3cnc4ccccc43)cc2o1
inhibition [1]: 27.2%

C=C(C)COc1ccc2ccc(=O)oc2c1
inhibition [1]: 14%

O=c1ccc2ccc(OCCCCBr)cc2o1
inhibition [1]: 2.59%

C=CCOc1ccc2ccc(=O)oc2c1
inhibition [1]: -5.86%

Cc1cc(=O)oc2cc(OCCCCCCn3ccnc3C)ccc12
inhibition [1]: 89.5% | IC50 [2]: 6.34 µM

O=c1ccc2ccc(OCCBr)cc2o1
inhibition [1]: 0.13%

O=c1ccc2ccc(OCCCCCCn3cnc4ccccc43)cc2o1
Activity [3]: Active | Activity [4]: >95% | Activity [5]: 0.26% | inhibition [1]: 99.2% | Activity [6]: 383% | Activity [7]: Active | Activity [8]: Active | Activity [9]: >95% | Activity [10]: Active | Activity [11]: 2.2% | Activity [12]: Non-Toxic | Activity [13]: Non-Toxic | Activity [14]: >95% | Activity [15]: 98% | Activity [16]: 50% | Activity [17]: Active | Activity (Sprivivirus cyprinus [18]): Active | Activity [19]: 0.4% | IC50 (Sprivivirus cyprinus [20]): 1680 nM | Activity [21]: Active | Activity [22]: Active | Activity (Sprivivirus cyprinus [23]): 97.86% | Activity [24]: inactive | Activity [25]: 3.47% | Activity [26]: 2.55% | IC50 [27]: 2120 nM | Activity [28]: 99.08% | Activity [29]: >95% | Activity [30]: 95.1% | Activity [31]: Active | IC50 [2]: 2.96 µM | Activity [32]: 2.35% | Activity [33]: Active | Activity [34]: 93.7% | Activity [35]: inactive | Activity [36]: Active

Cc1cc(=O)oc2cc(OCCCCCCn3cnc4ccccc43)ccc12
inhibition [1]: 94.1% | IC50 [2]: 4.76 µM

O=c1ccc2ccc(OCCCBr)cc2o1
inhibition [1]: -8.24%

Cc1cc(=O)oc2cc(OCCCCCCn3cncn3)ccc12
inhibition [1]: 25.2%

O=c1ccc2ccc(OCCCCCCN3CCCCC3)cc2o1
inhibition [1]: 5.32%

Cc1cn(CCCCCCOc2ccc3c(C)cc(=O)oc3c2)cn1
inhibition [1]: 65.1%

Source: ChEMBL document CHEMBL4840322, “Synthesis and biological evaluation of novel coumarin derivatives in rhabdoviral clearance” (Eur J Med Chem, 2021)
